The values below come from publication PMC11157767 (Molecular Cancer, 2024).

Broadly, the EC50 is the concentration needed to bring the measured effect to its halfway point. A word on the EC90: it is the concentration at which the effect reaches the 90% level. One may read the fraction unbound as free concentration divided by total concentration.

In one data set the test system is TRIM24-MET-i cells. Put plainly: 3-day dose-response assay, TRIM24-MET-i cells. Type of data set: cell-based. The conditions noted are these: Homo sapiens.
The nature of data set [1]: in vitro. The conditions noted are these: mouse, brain homogenate.
A short description of data set [2]: in vitro. To be noted: mouse, plasma.
A short description of data set [3]: In vitro protein binding assay, culture media. It counts as in vitro ADME. The conditions noted are these: read-out: unbound drug fraction, Culture Media, AVG.
Another data set deals with TRIM24-MET-i PDOX. To be noted: vs vehicle.
Another data set has as its system TRIM24-MET-r cells. Nature of the data set: 3-day dose-response assay, TRIM24-MET-r cells. Type of data set: cell-based. To be noted: Homo sapiens.

Like-named read-outs stand apart in the source and are kept apart here.

Protocol for TRIM24-MET-i PDOX: All treatments started 18 days after transplantation. Radiotherapy was administered at 0.5 Gy per day, delivering 10 Gy total.
Each line represents one mouse. The ends of lines indicate the onset of neurological symptoms and thereby the endpoints. Treatment started on day 13.

Regarding `COc1cc2nccc(Oc3ccc(NC(=O)C4(C(=O)Nc5ccc(F)cc5)CC4)cc3)c2cc1OC` [Cabozantinib], the 50% effective concentration (EC50) was 30.3 nM with TRIM24-MET-i cells (72 h, read-out: EC50 Total); 1 nM in the data set on TRIM24-MET-i cells (read-out: EC50 Unbound); 369 nM in the data set on TRIM24-MET-r cells (72 h, read-out: EC50 Total); 12.2 nM with TRIM24-MET-r cells (read-out: EC50 Unbound). Besides, the EC90 with TRIM24-MET-i cells (72 h, read-out: EC90 Total) is 556 nM; with TRIM24-MET-i cells (read-out: EC90 Unbound), 18.3 nM; with TRIM24-MET-r cells (72 h, read-out: EC90 Total), 44900 nM; in the data set with TRIM24-MET-r cells (read-out: EC90 Unbound), 1480 nM. Further, the figures for the fraction unbound (in “in vitro [1]”; in the data set “in vitro [2]”; in data set [3]) were 0.0025, 0.0017 and 0.033, respectively. The “increase of median survival” value in the data set with TRIM24-MET-i PDOX is 15.5 days.
